This test concerns the target T1, BTK (Homo sapiens, UniProt Q06187).
T1 construct: purchased Upstate 14-552
Nature of the test: In vitro BTK kinase assay: BTK-POLYGAT-LS ASSAY. Format: biochemical. The conditions noted are these: ATP 10 uM. In outline:
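BTK phosphorylation of polyGAT (100 nM final) with ATP at 10 μM final, 10 mM Tris-HCl pH 7.5 kinase buffer, quenched by EDTA after 30 min. Potency given as IC50.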
T1 sequence (Q06187 whole entry): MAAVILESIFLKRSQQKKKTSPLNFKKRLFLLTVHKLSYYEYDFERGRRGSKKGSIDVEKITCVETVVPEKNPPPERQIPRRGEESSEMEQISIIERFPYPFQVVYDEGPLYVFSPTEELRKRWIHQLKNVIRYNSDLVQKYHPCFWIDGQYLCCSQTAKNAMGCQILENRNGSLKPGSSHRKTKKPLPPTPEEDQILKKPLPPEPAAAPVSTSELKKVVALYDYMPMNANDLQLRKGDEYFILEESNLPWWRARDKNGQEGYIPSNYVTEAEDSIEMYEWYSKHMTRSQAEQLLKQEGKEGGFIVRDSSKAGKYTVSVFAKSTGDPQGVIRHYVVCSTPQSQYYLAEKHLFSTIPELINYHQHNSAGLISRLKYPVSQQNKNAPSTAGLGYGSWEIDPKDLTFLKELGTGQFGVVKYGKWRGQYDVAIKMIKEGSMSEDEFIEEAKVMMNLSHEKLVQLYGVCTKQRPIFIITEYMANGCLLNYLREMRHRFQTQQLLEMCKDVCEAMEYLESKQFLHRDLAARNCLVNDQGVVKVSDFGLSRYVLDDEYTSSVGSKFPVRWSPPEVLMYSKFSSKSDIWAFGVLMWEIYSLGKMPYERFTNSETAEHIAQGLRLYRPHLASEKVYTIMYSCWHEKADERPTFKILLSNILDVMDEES
`CC1CCCCN1S(=O)(=O)c1ccccc1NCC(=O)N[C@@H]1CCCN(c2ncnc3[nH]ncc23)C1` (stereo partly shown) [Example 214] came in with a half-inhibitory concentration (IC50) of less than 100 nM. Compound `CCC[C@@H](Nc1cccc(Cl)c1)C(=O)N[C@@H]1CCCN(c2ncnc3[nH]ccc23)C1` [Example 215] had an IC50 of less than 100 nM. With `O=C(CNc1ccccc1S(=O)(=O)N1CCC(C(F)(F)F)CC1)N[C@@H]1CCCN(c2ncnc3[nH]ccc23)C1` [Example 217], the IC50 is less than 100 nM. `CC(C)c1ccccc1NCC(=O)N[C@@H]1CCCN(c2ncnc3[nH]ncc23)C1` [Example 219] had an IC50 of less than 100 nM.

In the case of `CC1CCC(C)N1S(=O)(=O)c1ccccc1NCC(=O)N[C@@H]1CCCN(c2ncnc3[nH]ncc23)C1` (stereo partly shown) [Example 220], the IC50 is less than 100 nM.

Take `O=C(CNc1ccccc1OCCc1ccccc1)N[C@@H]1CCCN(c2ncnc3[nH]ccc23)C1` [Example 221]: the IC50 was less than 100 nM. Next, `O=C(CNc1ccccc1OC1CCCC1)N[C@@H]1CCCN(c2ncnc3[nH]ccc23)C1` [Example 222]: less than 100 nM; `CN(C(=O)CNc1ccccc1)C1CCCN(c2ncnc3[nH]ccc23)C1` (stereo not shown) [Example 223]: 100 to 999 nM; `CC1CC(C)CN(S(=O)(=O)c2ccccc2NCC(=O)N[C@@H]2CCCN(c3ncnc4[nH]ncc34)C2)C1` (stereo partly shown) [Example 224]: less than 100 nM. As to `CC[C@@H](Nc1cc(F)cc(Cl)c1)C(=O)N[C@@H]1CCCN(c2ncnc3[nH]ccc23)C1` [Example 225], the concentration for half-maximal inhibition (IC50) was less than 100 nM. In turn, `C[C@@H](O)[C@@H](Nc1cc(F)cc(Cl)c1)C(=O)N[C@H]1CN(c2ncnc3[nH]ncc23)CC[C@@H]1C` [Example 226] returned an IC50 of less than 100 nM. Next, `O=C(CNc1ccccc1S(=O)(=O)N1CC2CCCC2C1)N[C@@H]1CCCN(c2ncnc3[nH]ncc23)C1` (stereo partly shown) [Example 227]: less than 100 nM; `O=C(CNc1ccccc1S(=O)(=O)N1CCC(C(F)(F)F)CC1)N[C@@H]1CCCN(c2ncnc3[nH]ncc23)C1` [Example 228]: less than 100 nM. As for `CC1CCCC(C)N1S(=O)(=O)c1ccccc1NCC(=O)N[C@@H]1CCCN(c2ncnc3[nH]ncc23)C1` (stereo partly shown) [Example 229], the IC50 is less than 100 nM.

`O=C(N[C@@H](C(=O)N[C@@H]1CCCN(c2ncnc3[nH]ccc23)C1)C1CC1)c1ccccc1O` [Example 230] returned an IC50 of 100 to 999 nM. As for `O=C(N[C@@H]1CCCN(c2ncnc3[nH]ncc23)C1)[C@H](Nc1cccc(Cl)c1)C1CC1` [Example 231], the IC50 was less than 100 nM. Turning to `C[C@@H](Nc1cc(F)cc(Cl)c1)C(=O)N[C@@H]1CCCN(c2ncnc3[nH]ccc23)C1` [Example 232], the IC50 is less than 100 nM. Next, `C[C@H](O)[C@@H](Nc1cccc(Cl)c1)C(=O)N[C@@H]1CCCN(c2ncnc3[nH]ccc23)C1` [Example 233]: less than 100 nM; `CC(C)c1ccccc1N[C@@H](C(=O)N[C@@H]1CCCN(c2ncnc3[nH]ncc23)C1)C1CC1` [Example 234]: 100 to 999 nM.

In turn, `O=C(CNc1ccccc1S(=O)(=O)c1ccc(C(F)(F)F)cc1)N[C@@H]1CCCN(c2ncnc3[nH]ncc23)C1` [Example 235] had an IC50 of less than 100 nM. Next, `O=C(CNc1ccccc1Cl)N[C@@H]1CCCN(c2ncnc3[nH]ccc23)C1` [Example 236]: less than 100 nM. Take `Cc1cccc(NCC(=O)N[C@@H]2CCCN(c3ncnc4[nH]ccc34)C2)c1` [Example 237]: the IC50 was in the range of 100 to 999 nM.

For `C[C@@H](Nc1cccc(Cl)c1)C(=O)N[C@@H]1CCCN(c2ncnc3[nH]ccc23)C1` [Example 238], the IC50 was less than 100 nM.

In turn, `CC(C)c1ccccc1N[C@@H](C(=O)N[C@@H]1CCCN(c2ncnc3[nH]ccc23)C1)[C@H](C)O` [Example 239] came in with an IC50 of 100 to 999 nM.

`CN(C1CCCCC1)S(=O)(=O)c1ccccc1NCC(=O)N[C@@H]1CCCN(c2ncnc3[nH]ncc23)C1` [Example 240] returned an IC50 of less than 100 nM. As to `O=C(CNc1ccccc1Oc1ccccc1)N[C@@H]1CCCN(c2ncnc3[nH]ccc23)C1` [Example 241], the IC50 is less than 100 nM. In turn, `O=C(CNc1ccccc1S(=O)(=O)N1CCOCC1)N[C@@H]1CCCN(c2ncnc3[nH]ncc23)C1` [Example 242] gave an IC50 of less than 100 nM. Next, `O=C(CNc1ccccc1S(=O)(=O)N1CCOCC1)N[C@@H]1CCCN(c2ncnc3[nH]ccc23)C1` [Example 243]: less than 100 nM; `O=C(CNc1ccccc1OC1CCCC1)N[C@@H]1CCCN(c2ncnc3[nH]ncc23)C1` [Example 245]: less than 100 nM; `CN(C)S(=O)(=O)c1ccc(F)cc1NCC(=O)N[C@@H]1CCCN(c2ncnc3[nH]ccc23)C1` [Example 246]: 100 to 999 nM. The compound `O=C(CNc1cccc(Cl)c1)N[C@@H]1CCCN(c2ncnc3[nH]ncc23)C1` [Example 247] had an IC50 of less than 100 nM. For the compound `CC(C)Oc1ccccc1NCC(=O)N[C@@H]1CCCN(c2ncnc3[nH]ccc23)C1` [Example 248], the IC50 lay in the range of 100 to 999 nM. For `CC[C@@H](Nc1ccccc1C(C)C)C(=O)N[C@@H]1CCCN(c2ncnc3[nH]ccc23)C1` [Example 249], the IC50 was 100 to 999 nM. Take `CC1(C)CCN(S(=O)(=O)c2ccccc2NCC(=O)N[C@@H]2CCCN(c3ncnc4[nH]ccc34)C2)CC1` [Example 250]: the IC50 was less than 100 nM. The compound `O=C(CNc1ccccc1OC1CCCCCC1)N[C@@H]1CCCN(c2ncnc3[nH]ccc23)C1` [Example 251] displayed an IC50 of less than 100 nM.

Compound `O=C(CNc1ccccc1C(=O)N1CCCCC1)N[C@@H]1CCCN(c2ncnc3[nH]ccc23)C1` [Example 253] displayed an IC50 of 100 to 999 nM. Next, `O=C(CNc1cccc2c1CCCC2)N[C@@H]1CCCN(c2ncnc3[nH]ccc23)C1` [Example 254]: less than 100 nM; `CC(C)(C)[C@@H](Nc1cccc(Cl)c1)C(=O)N[C@@H]1CCCN(c2ncnc3[nH]ccc23)C1` [Example 255]: less than 100 nM. Next, `CC(C)(C)C1CCN(S(=O)(=O)c2ccccc2NCC(=O)N[C@@H]2CCCN(c3ncnc4[nH]ncc34)C2)CC1` [Example 256]: less than 100 nM; `CCC[C@@H](Nc1ccccc1)C(=O)N[C@@H]1CCCN(c2ncnc3[nH]ccc23)C1` [Example 257]: 100 to 999 nM; `Cc1ccc(NCC(=O)N[C@@H]2CCCN(c3ncnc4[nH]ccc34)C2)cc1C` [Example 258]: 100 to 999 nM. Compound `CCCc1ccccc1NCC(=O)N[C@@H]1CCCN(c2ncnc3[nH]ccc23)C1` [Example 259] registered an IC50 of less than 100 nM.

Consider `Cc1c(Cl)cccc1NCC(=O)N[C@@H]1CCCN(c2ncnc3[nH]ccc23)C1` [Example 261], for which the IC50 lay within 100 to 999 nM. `CCc1cccc(NCC(=O)N[C@@H]2CCCN(c3ncnc4[nH]ccc34)C2)c1` [Example 262] came in with an IC50 of less than 100 nM. The compound `CC(C)c1ccccc1N[C@@H](C(=O)N[C@@H]1CCCN(c2ncnc3[nH]ccc23)C1)C(C)C` [Example 263] showed an IC50 of 100 to 999 nM.

In the case of `O=C(CNc1cc(F)cc(C(F)(F)F)c1)N[C@@H]1CCCN(c2ncnc3[nH]ccc23)C1` [Example 264], the IC50 was less than 100 nM. For `CC(C)(C)C1CCN(S(=O)(=O)c2ccccc2NCC(=O)N[C@@H]2CCCN(c3ncnc4[nH]ccc34)C2)CC1` [Example 265], the IC50 is less than 100 nM. Next, `O=C(CNc1ccccc1OC1CCCCC1)N[C@@H]1CCCN(c2ncnc3[nH]ccc23)C1` [Example 266]: less than 100 nM; `Cc1c(F)cccc1NCC(=O)N[C@@H]1CCCN(c2ncnc3[nH]ccc23)C1` [Example 267]: 100 to 999 nM.
